Source: US10028990B2, “Functional foods and beverages with synergistic properties to promote homeostasis” (JUSTBIO INC., priority 2011, dated 2018)
Residues, ends and D or L forms follow the SMILES beside them.

Legend:
[1] = ORAC (Oxygen Radical Absorbance Capacity) test; settings: FIG. 46; combined with maple syrup
Protocol: The antioxidant capacity of formulations and beverages was determined with the ORAC (Oxygen Radical Absorbance Capacity) test. ORAC assays were performed as previously described (Prior et al, 2005). […] These free radicals are generated by the exposition of flurorescein to AAPH. […] The oxidation process is a kinetic reaction that is measured fluorescence levels (excitation: 485 nm, emission: 528 nm) over time using a Synergy HT (Biotek) microplate reader. Area under the curves (AUC) from each compound tested are calculated and compared to the blank and the control of reference the vitamin E analog 6-Hydroxy-2,5,7,8 Teramethylchromane-2-carboxylic acid (Trolox). ORAC values are expressed as μmol of Trolox equivalent per ml (μmol TE/ml) of compound tested.

SH-SY5Y neurons = experiment: ROS production by dopaminergic SH-SY5Y neurons exposed to supernatant of Cal27 cells; format: cell-based, Human
Protocol: (§1) Cellular ROS levels were obtained by measuring the oxidation of CM-H2DCFDA (5-(and 6)-chlromethyl-20,70-dichlorodihydrofluresceindiacetate; Invitrogen) a cell-permeant indicator. Cal27, HEK 293 and SH-SY5Y were plated in 96 well plates at a cell density of 25000 cells per well. Cells were treated for 1 hour with 5 μM CM-H2DCFDA. After removing the CDFDA solution, cells were treated with various adaptogenic formulations prepared with ROS buffer (HBSS containing 2% FBS). After 30 min of exposure with samples, a first reading was taken using the synergy HT (Biotek) plate reader. Various concentrations of AAPH (100 mM, 40 mM, 16 mM, 6.4 mM and 2.5 mM) were then added, and readings (excitation: 485 nm, emission: 530 nm) were taken every 30 minutes for 2 hours. The fluorescence intensity is an indicator of H2O2 intracellular level so values are expressed in Relative Fluorescence Unit (RFU).
This assay mimics the impact of mucosal cells on subepithelial neuronal cells.

TLR2 = biological target: T1, TLR2 (Homo sapiens, UniProt O60603+Q15399); experiment: TLR2 activation with Pam3Cys in Cal27 cells under low or high oxidative stress; format: cell-based; settings: FIG. 34, Pam3Cys 500 ng/ml
T1 construct: TLR2-dependent ROS production in Cal27 exposed for 30 minutes to various concentrations of AAPH; host or cells: CAL27
T1 sequence (O60603 21-784): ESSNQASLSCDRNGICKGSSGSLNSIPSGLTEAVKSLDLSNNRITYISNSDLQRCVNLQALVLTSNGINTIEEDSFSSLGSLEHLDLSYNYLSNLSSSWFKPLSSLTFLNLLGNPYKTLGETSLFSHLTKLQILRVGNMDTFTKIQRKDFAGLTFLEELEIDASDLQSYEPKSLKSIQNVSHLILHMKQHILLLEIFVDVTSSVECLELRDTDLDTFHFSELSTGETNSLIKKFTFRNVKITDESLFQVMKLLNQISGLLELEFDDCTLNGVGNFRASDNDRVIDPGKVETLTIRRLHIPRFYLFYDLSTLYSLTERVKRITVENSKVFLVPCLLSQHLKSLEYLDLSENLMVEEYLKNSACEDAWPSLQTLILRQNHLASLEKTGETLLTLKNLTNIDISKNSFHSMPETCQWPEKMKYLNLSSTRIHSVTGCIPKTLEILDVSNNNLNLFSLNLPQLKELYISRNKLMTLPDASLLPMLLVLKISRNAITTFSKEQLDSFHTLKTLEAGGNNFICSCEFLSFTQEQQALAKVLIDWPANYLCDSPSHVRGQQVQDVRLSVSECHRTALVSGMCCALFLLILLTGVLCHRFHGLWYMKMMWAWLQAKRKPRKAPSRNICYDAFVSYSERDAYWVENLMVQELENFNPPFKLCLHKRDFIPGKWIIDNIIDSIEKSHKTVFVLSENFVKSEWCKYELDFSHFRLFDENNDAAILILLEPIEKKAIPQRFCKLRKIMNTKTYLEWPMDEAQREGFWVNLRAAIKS
T1 sequence (Q15399 25-786): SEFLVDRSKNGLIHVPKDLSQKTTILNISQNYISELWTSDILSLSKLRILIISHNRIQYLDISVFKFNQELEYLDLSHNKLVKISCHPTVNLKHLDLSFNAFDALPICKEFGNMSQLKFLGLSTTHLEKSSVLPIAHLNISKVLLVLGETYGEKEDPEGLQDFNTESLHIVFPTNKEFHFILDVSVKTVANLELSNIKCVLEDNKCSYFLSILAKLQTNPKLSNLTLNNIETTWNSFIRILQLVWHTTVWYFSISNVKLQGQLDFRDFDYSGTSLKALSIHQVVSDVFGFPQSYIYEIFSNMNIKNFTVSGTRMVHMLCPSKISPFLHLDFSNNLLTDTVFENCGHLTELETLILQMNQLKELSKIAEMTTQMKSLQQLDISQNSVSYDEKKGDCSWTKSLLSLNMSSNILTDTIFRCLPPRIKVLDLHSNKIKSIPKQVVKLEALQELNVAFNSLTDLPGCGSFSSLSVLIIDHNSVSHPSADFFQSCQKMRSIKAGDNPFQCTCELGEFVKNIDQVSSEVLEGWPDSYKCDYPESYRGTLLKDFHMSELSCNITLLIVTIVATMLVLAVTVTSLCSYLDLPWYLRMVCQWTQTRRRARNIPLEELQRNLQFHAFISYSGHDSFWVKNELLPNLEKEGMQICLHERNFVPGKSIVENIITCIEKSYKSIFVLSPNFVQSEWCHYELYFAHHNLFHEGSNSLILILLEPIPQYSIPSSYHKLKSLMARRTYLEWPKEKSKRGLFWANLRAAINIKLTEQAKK
Protocol: Cell lines (CAL27, SH-SY5Y) used for this assay were plated in plaque assays at a density of 50,000-100,000 cells per well. Colorimetric MTT (3-(4,5-dimethylthiazol-2-yl)-2,5-diphenyl tetrazolium bromide) was dissolved in HBSS buffer to obtain a final concentration of 0.5 mg/ml per well. Cell plates were incubated for 2 hours at 37° C. Conditioned medium was then removed, and acid-isopropanol (0.04N HCl in isopropanol) was added to all wells. HCL was used as positive control to induce cell death. Plates were read at 530 nm/630 nm in a Synergy Biotek machine. […] This method is an adaptation of a previously described assay (Mossman, 1983).
All cell lines were obtained from the American Type Culture Collection (ATCC, Manassas, US). In some experiments, cells were transferred to a 96 wells plate and treated with different concentration of TLR2 agonist synthetic triacylated lipoprotein PAM3CSK4 (InvivoGen) starting by 500 ng/ml final concentration to activate TLR2.
as §1
ATP intracellular levels were measured from whole cell lysates obtained through a freeze-thaw cycle, whereas ATP secreted from cells were measured from conditioned cell culture supernatants. Both intracellular and secreted ATP using measured using an ATP determination kit purchased from Invitrogen (Molecular Probes). ATP levels were detected at luminescence 560 nm. ATP levels were normalized to untreated control and were expressed as % ATP levels.

Compound: C=C1C[C@@]23CC[C@H]4[C@@](C)(CCC[C@@]4(C)C(=O)O[C@@H]4O[C@H](CO)[C@@H](O)[C@H](O)[C@H]4O)[C@@H]2CC[C@]1(O[C@@H]1O[C@H](CO)[C@@H](O)[C@H](O[C@@H]2O[C@H](CO)[C@@H](O)[C@H](O)[C@H]2O)[C@H]1O[C@@H]1O[C@H](CO)[C@@H](O)[C@H](O)[C@H]1O)C3 [Rebaudiside A, Rebaudioside A]
- synergy in combination with maple syrup (ORAC versus sum of SE+ingredient) [1]: act in synergy

Compound: COC(=O)[C@H](Cc1ccccc1)NC(=O)[C@@H](N)CC(=O)O [aspartame] (H-Asp-Phe-OMe)
- synergy in combination with maple syrup (ORAC versus sum of SE+ingredient) [1]: does not create this synergy

Compound: C=C1C[C@@]23CC[C@H]4[C@@](C)(CCC[C@@]4(C)C(=O)O[C@@H]4O[C@H](CO)[C@@H](O)[C@H](O)[C@H]4O)[C@@H]2CC[C@]1(O[C@@H]1O[C@H](CO)[C@@H](O)[C@H](O)[C@H]1O[C@@H]1O[C@H](CO)[C@@H](O)[C@H](O)[C@H]1O)C3 [stevioside]
- synergy in combination with maple syrup (ORAC versus sum of SE+ingredient) [1]: act in synergy

Compound: OC[C@H]1O[C@H](O[C@]2(CCl)O[C@H](CCl)[C@@H](O)[C@@H]2O)[C@H](O)[C@@H](O)[C@H]1Cl [sucralose]
- synergy in combination with maple syrup (ORAC versus sum of SE+ingredient) [1]: does not create this synergy

Compound: Pam3Cys
- ROS production by dopaminergic neurons upon TLR2 activation of Cal27 cells (SH-SY5Y neurons; FIG. 37, 50 ng/ml of Pam3Cys): reduce ROS production
- neuroprotective role upon TLR2 activation of Cal27 cells (SH-SY5Y neurons; higher dose of Pam3Cys (250 or 500 ng/ml)): did not have this neuroprotective role
- impact on ROS production (TLR2; 6.4 mM and 16 mM AAPH): no significant impact
- impact on mitochondrial activity (TLR2; 6.4 mM and 16 mM AAPH): no significant impact
- ATP secretion (TLR2; cells without AAPH): slightly increased ATP secretion
- ATP production (TLR2; high oxidative stress (16 mM AAPH)): increases ATP production
